Patent US12396997B2, “Methods of treatment with an iboga alkaloid” (priority 2022, dated 2025)

Experiments:
[1] = tested on: special operations veterans with history of TBI; experiment: CAPS-5 (Clinician-administered PTSD Scale for DSM-5); format: in vivo, human
Procedure: Thirty, male, navy seal or army special forces veterans, ages 33-58 years (mean 44.5 years), were enrolled. Of the 30 participants, 27 were Caucasian, 1 was Hispanic and 2 were Native American. Body mass index was between 17-35 kg/m^2.
(§1) With subjects in the fasting state, an intravenous infusion of 1 gram of magnesium sulfate was administered 1-2 hours prior to treatment. […] Medical staff (MD, RN, or EMT) were onsite at a ratio of at least 1 staff per 2 patients throughout treatment for monitoring and management, but no specific coaching or psychological support was provided during treatment.
Post treatment, each subject was assessed four days after treatment, one month after treatment, and, if willing, one year after treatment. The post-treatment assessments conducted at four days and at one month after treatment included neuropsychological testing, measures of PTSD, depression, anxiety, mystical experiences, functional imaging and EEG. Post-treatment assessments conducted at one year after treatment included PTSD, depression, and anxiety measures. […]

[2] = tested on: special operations veterans with history of TBI; experiment: MADRS (Montgomery-Asberg Depression Rating Scale), incl. suicidal ideation item Q10; format: in vivo, human
Procedure: as §1
Post treatment, each subject was assessed four days after treatment, one month after treatment, and, if willing, one year after treatment. The post-treatment assessments conducted at four days and at one month after treatment included neuropsychological testing, measures of PTSD, depression, anxiety, mystical experiences, functional imaging and EEG. Post-treatment assessments conducted at one year after treatment included PTSD, depression, and anxiety measures.
MADRS testing provides an indication of depressive symptoms, CAPS-5 provides an indication of PTSD and SIGH-A provides an indication of anxiety. Collectively these overlap to provide indication of mood, concentration, sleep and tension.
The MADRS is a clinician-administered 10-item scale assessing the severity of depression symptoms. […] A total score of 0-6 indicates no depression, 7-19 mild depression, 20-34 moderate depression, 35-59 severe depression, and 60+ very severe depressive symptoms (Müller, M. J., J. Affect. Disord. 77, 255-260 (2003)).

[3] = tested on: special operations veterans with history of TBI; experiment: Structural T1w MRI (FreeSurfer) regional volume and cortical thickness; format: in vivo, human
Procedure: Structural imaging of the brain was also conducted on some of the subjects of Example 1. Gray matter constitutes about 40% of the brain and white matter constitutes about 60% of the brain. Gray matter contains most of the brain's neuronal cell nodes, it is fully developed once a person reaches their 20's and interprets sensor information from various parts of the body. White matter is made up of bundles which connect various gray matter areas, it develops throughout the 20's and peaks in middle age. Typical metrics analyzed in anatomical (T1-weighted. “T1w”) imaging include volume and/or shape of nuclei (e.g. caudate), volume and/or shape of ventricles of the brain, and cortical thickness (mm). These metrics can be used to study normal and abnormal neuroanatomy and are primarily used to quantify gray matter. A tool called FreeSurfer was applied to images for a T1w structural analysis (volume, cortical thickness) to adjust for bias, remove non-brain matter, segments by tissue, parcels the brain into standardized regions, and provides measurements of those regions. FreeSurfer measurements of whole brain volume, volume by tissue (gray, white, CSF), estimated intracranial volume (ICV), subcortical gray matter volume, cortical volume by region were done. […] In particular, analysis was done to determine if there was any loss in gray matter volume or cortical thickness, whether there was a loss in white matter volume or an increase in presence of white matter […].
The fMRI images were also inspected to determine the difference in volume in regional areas of the brain from baseline to one month after treatment. FIG. 8A is a bar graph showing the effect size of a change in volume in 47 brain regions indicated along the x-axis. […] The fMRI images were also inspected for whole brain thickness at baseline and one month after treatment. […] FIG. 8B is a bar graph showing the effect size of a cortical thickness change for the brain regions indicated along the x-axis, from baseline to one month after treatment. […] The right and left parahippocampal gyrus are involved in visuospatial processing, including scene perception, navigation, and emotional contextualization. The left orbitofrontal gyrus is involved in impulse control and reward valuation. The left insular cortex is associated with both the affective-perceptual and cognitive-evaluative forms of empathy, as well as awareness of hunger, pain and fatigue. The left entorhinal cortex is a widespread network hub for memory, navigation, and perception of time.

[4] = tested on: special operations veterans with history of TBI; experiment: Predicted brain age from MRI with brain age model; format: in vivo, human; conditions: one-month post treatment; FIG. 9D
Source text: A predictive model of normal aging defined using machine learning in healthy individuals, based on magnetic resonance imaging-derived estimates of gray matter and white matter (Id.) was applied to the MRI images from the subjects enrolled in the study of Example 1. […] There was a significant reversal of brain age from baseline to one month after treatment. The mean decrease in brain age was 1.3 years (corrected p=0.03).
At baseline, the brain age estimate for the 24 subjects was 40.89 years. […] The average decrease in brain age from baseline one month after treatment was 1.4 years.

[5] = tested on: N-methyl-D-aspartate, kappa and mu opioid, sigma-1 and -2, nicotinic acetylcholine, serotonin transporter, and dopamine transporter; conditions: literature; cited from earlier work
cortical neuron = conditions: in vitro; literature; cited from earlier work
[6] = following treatment vs baseline

## CCC1CC2CC3c4[nH]c5ccc(OC)cc5c4CCN(C2)C13 (centres unmarked) [ibogaine]
[1]; [6]
  Cohen's D on clinician rated psychiatric assessments (PTSD): > 2
[1]; secondary analyses
  Remission rate for comorbid PTSD: around 80%
[2]; 1-mo. post, mild TBI, N 28, baseline 46%
  Suicidal Ideation (MADR Q10), % Reporting: 7%
[2]; [6]
  Cohen's D on clinician rated psychiatric assessments (depression): > 2
[2]; secondary analyses
  Remission rate for comorbid depression: around 80%
[3]; baseline vs. one month post treatment, two-tailed p = 0.0789
  White matter hypointensities (corrected for cerebral white matter): Two-tailed: no significant differences
[3]; baseline vs. one month post treatment, two-tailed p = 0.0949
  Subcortical Gray Matter volume: Two-tailed: no significant differences
[3]; baseline vs. one month post treatment, two-tailed p = 0.4755
  Total Gray Matter volume: Two-tailed: no significant differences
[3]; baseline vs. one month post treatment, two-tailed p = 0.4847
  Cortical Gray Matter volume: Two-tailed: no significant differences
[3]; one month after treatment vs baseline, two-tailed
  Right hemisphere mean thickness: no significant difference
[3]; one month after treatment vs baseline, two-tailed p=0.7146
  Left hemisphere mean thickness: no significant difference
[4]
  Estimated brain age compared to aiTBS: reducing in estimated brain age
[5]
  Affinity for neurotransmitter receptors: moderate-to-weak affinity
Cortical neuron
  Cortical neuron dendritic arbor complexity: increases cortical neuron dendritic arbor complexity
